Results taken from patent US20130005749A1, “NOVEL FORMULATION AND TREATMENT METHODS” (The University of Queensland, priority 2011, published 2013).
One block for each molecule: values may come before it.

Key:
[1] = test system: inflammatory bowel disease; settings: after one year; Ansari et al. 2008; cited from earlier work
ulcerative colitis = assay: Human patient R-LS with ulcerative colitis
Experimental: Because treatment with AZA and 6-MP was not an option, they were treated instead with 6-TG using the conventional therapeutic protocol, namely bolus administration of 40 mg per day (R-LS weighs approximately 60 kg) and 5-aminosalicylic acid.
Again, they were treated with 6-TG using the conventional therapeutic protocol, namely bolus administration of 40 mg per day and balsalazide. […] Maintenance therapy to prevent relapse was again prescribed using a lower dose of balsalazide.
Given their clinical history, the inventors were reluctant to prescribe another bolus dose of 6-TG due to the known hepatotoxic side-effects that could occur.
Accordingly, R-LS was given 60 mg per day 6-TG in a divided dosage (3 separate doses of equal amounts). The doses were given at intervals throughout the day.

acute childhood leukemia = settings: cited from earlier work; for prevalence of VOD in patients: acute childhood leukemia cases, Stork et al. 2010
[2] = test system: Winnie (C57Bl/6 Muc2 Winnie/Winnie) mice; assay: SOS in Winnie mice; type: in vivo
Experimental: (§1) The total possible VOD score was 240.
(§2) Male or female C57Bl/6 Winnie mice were gavaged twice daily for 11-days in an experiment with three groups (6 animals per group):
(§3) Group 1: 1.25 mg/kg 6TG evening and morning (total 2.5 mg/kg/d, N=6)
(§4) Group 3: 2.5 mg/kg/d 6TG in the morning and vehicle gavage in the afternoon ([…]).
(§5) Male or female C57Bl/6 Winnie mice were gavage once daily for 28-days in an experiment with two groups (6 animals per group):
(§6) Group 1: 0.5 mg/kg 6TG once daily gavage

[3] = test system: Winnie (C57Bl/6 Muc2 Winnie/Winnie) mice; assay: Histological colitis scores in Winnie mouse model of spontaneous colitis; type: in vivo
Experimental: This experiment usesa mouse model of spontaneous colitis called Winnie(C57Bl/6 Muc2^Winnie/Winnie) due to a single SNP mutation in Muc2 in C57Bl/6 mice. The model resembles ulcerative colitis. The mutation confers an intestinal epithelial cell defect, which causes a Th17 dominant inflammatory response (Heazlewood et al. 2008 and Eri et al. 2011).
as §2, §3
Group 2: vehicle control twice daily (N=6), or
as §4
This experiment uses Winnie(C57Bl/6 Muc2^Winnie/Winnie).
as §5, §6
Group 2: vehicle control (N=6),

[4] = test system: Winnie (C57Bl/6 Muc2 Winnie/Winnie) mice; assay: Immunosuppression (venous blood leukocytes) and myelotoxicity in Winnie mice; type: in vivo; settings: for immunosuppression (reductions in venous blood leukocytes): 11 days
Experimental: as §2, §3, §4, §5, §6

HPRT−/− C57BL/6 mice = assay: VOD score in HPRT-/- mouse model; type: in vivo; settings: all dosage levels including 1 and 2.5 mg/kg body weight, gavage each day for 14 days
Text: as §1

C57BL/6 mice = assay: Veno-occlusive disease (VOD/SOS) blinded histological score in C57BL/6 mice; settings: 10 days
Text: Veno-occlusive disease (or “VOD”) in each mouse was scored in a blinded fashion based on predetermined scoring criteria for sinusoidal endothelial damage (maximum 60), hepatic central vein damage (maximum 60) and inflammatory cell infiltrates using haematoxylin-eosin sections counterstained with vWF for endothelial cells and F4/80 for macrophages (maximum 120). The total possible VOD score was 240.
VOD was scored using the method described in Example 1.
Two groups of C57BL/6 mice were administered a large bolus dose of 6-TG (2.5 mg/kg body weight/day) either (1) orally (by gavage) or (2) intraperitoneally for a period of 10 days.
VOD in each mouse was then scored using the method described in Example 1.

[5] = 0.5 mg/kg once daily gavage, 28 days

Structure (SMILES): Cn1cnc([N+](=O)[O-])c1Sc1ncnc2nc[nH]c12 [AZA, 6-(3-methyl-5-nitroimidazol-4-yl)sulfanyl-7H-purine]
- patients who stop therapy due to side-effects or non-responsiveness [1]: approximately 40%
- adverse reactions (ulcerative colitis; human, in vivo): life-threatening adverse reactions

Structure (SMILES): Sc1ncnc2nc[nH]c12 [Formulation 6-MP, 3,7-dihydropurine-6-thione]
- patients who stop therapy due to side-effects or non-responsiveness [1]: approximately 40%
- prevalence of VOD in patients (acute childhood leukemia): not observed
- adverse reactions (ulcerative colitis; human, in vivo): life-threatening adverse reactions

- SOS [2, 5]: did not occur
- SOS ([2]; 2.5 mg/kg/d once daily gavage × 11 days): causes SOS
- SOS ([2]; split 1.25 mg/kg b.d dose, 11 days): SOS is largely avoided
- VOD score (HPRT−/− C57BL/6 mice): VOD was shown to be abrogated
- VOD (C57BL/6 mice; 2.5 mg/kg body weight/day bolus by oral gavage): exhibited VOD
- VOD (C57BL/6 mice; 2.5 mg/kg body weight/day bolus intraperitoneally): VOD was not observed
Structure (SMILES): Nc1nc2nc[nH]c2c(=S)[nH]1 [Formulation 6-TG, 2-amino-6,7-dihydro-3H-purine-6-thione]
- clinical effectiveness in treating the disease compared with 6-MP (acute childhood leukemia; Stork et al. 2010 (and others)): equivalent or even more clinically effective
- prevalence of VOD in patients (acute childhood leukemia): high prevalence of VOD
- response to the treatment (ulcerative colitis; 60 mg per day in 3 separate equal doses, six months (relapse December 2010)): once again effective
- response to the treatment (ulcerative colitis; bolus 40 mg per day with 5-aminosalicylic acid, after 4 months (2003)): extremely positive response
- response to the treatment (ulcerative colitis; bolus 40 mg per day with balsalazide, ~5-6 months (relapse 2006)): positive response
- Histological colitis scores ([3]; 0.5 mg/kg/d once daily gavage, 28 days): significantly improved spontaneous colitis
- Histological colitis scores ([3]; 1.25 mg/kg twice daily gavage, 11 days): significantly improved spontaneous colitis
- Histological colitis scores ([3]; 2.5 mg/kg/d gavaged once daily, 11 days): significantly improved spontaneous colitis
- Immunosuppression [4, 5]: mild
- myelotoxicity [4, 5]: did not have myelotoxicity
- immunosuppression (reductions in venous blood leukocytes) ([4]; single full dosing 2.5 mg/kg/d): moderate immunosuppression
- immunosuppression (reductions in venous blood leukocytes) ([4]; split dosing 1.25 mg/kg twice daily): moderate immunosuppression

Structure (SMILES): O=C(O)c1cc(/N=N/c2ccc(S(=O)(=O)Nc3ccccn3)cc2)ccc1O [sulfasalazine]
- adverse reactions (ulcerative colitis; patient history before 2003): life-threatening adverse reactions
